The target of assay [1] is T1, T315I ABL mutant kinase domain (Homo sapiens, UniProt P00519, T315I).
T1 construct: ABL kinase domain (corresponding to residues 229-512); GST (N, cleaved yes); PreScission cleavage site (N, cleaved yes); made in house; host or cells: High5 insect cells (baculovirus)
T1 sequence (P00519 229-512 T315I): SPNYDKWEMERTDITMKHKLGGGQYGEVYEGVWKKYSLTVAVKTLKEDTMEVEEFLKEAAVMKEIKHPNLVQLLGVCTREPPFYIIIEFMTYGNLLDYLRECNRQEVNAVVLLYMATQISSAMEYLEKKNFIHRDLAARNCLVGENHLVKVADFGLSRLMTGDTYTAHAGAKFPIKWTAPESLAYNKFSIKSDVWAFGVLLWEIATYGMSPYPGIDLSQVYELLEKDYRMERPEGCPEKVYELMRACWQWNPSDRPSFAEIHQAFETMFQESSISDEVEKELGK
Nature of the assay: ATP site-dependent displacement assay, indolinone probe of 3.1. The assay is classed as binding. An excerpt:
(§1) KD values, are the average of three independent experiments.

For assay [2], the target named is T2, wild-type ABL kinase domain (Homo sapiens, UniProt P00519).
T2 construct: ABL kinase domain (corresponding to residues 229-512); GST (N, cleaved yes); PreScission cleavage site (N, cleaved yes); made in house; host or cells: High5 insect cells (baculovirus)
T2 sequence (P00519 229-512): T1 sequence (P00519 229-512 T315I) with I87T
Described as above. The assay is classed as binding.
Text: as §1

In assay [3] the target is T3, Wild-type ABL 0P (unphosphorylated) kinase domain (Homo sapiens, UniProt P00519).
T3 construct: ABL kinase domain (corresponding to residues 229-512); GST (N, cleaved yes); PreScission cleavage site (N, cleaved yes); made in house; host or cells: High5 insect cells (baculovirus)
T3 sequence (P00519 229-512): T1 sequence (P00519 229-512 T315I) with I87T
Described as above. Type of assay: binding.
Text: as §1

Assay [4] concerns the target T1, T315I ABL mutant kinase domain. The assay is described as follows: ATP site-dependent displacement assay, indolinone probe of 3.2. Type of assay: binding.
Text: as §1

Assay [5] has as its target T2, wild-type ABL kinase domain. The assay is described as above. The assay is classed as binding.
Text: as §1

The target in assay [6] is T3, Wild-type ABL 0P (unphosphorylated) kinase domain. The description is as above. Type of assay: binding.
Text: as §1

Assay [7] has as its target T4, wild-type ABL in HCT-116 transfected cells (Homo sapiens, UniProt P00519).
T4 construct: ABL cDNA (corresponding to residues 27-1130); expressed in transfected cells; host or cells: HCT-116
Nature of the assay: Immunoblotting of transfected HCT-116 cells (pY412-ABL). The conditions noted are these: 5 μM, HCT-116 transfected with wild-type construct, FIG. 3. Type of assay: cell-based. The method, then: (§2) Amplification was performed using the forward oligonucleotide:
(§3) Immunoblotting was performed according to standard methods.

The target in assay [8] is T5, BCR-ABL in K-562 leukemia cells (Homo sapiens, UniProt P00519).
T5 construct: endogenously expressing BCR-ABL cells; endogenous in cells; host or cells: K-562; the other entry of the earlier key: BCR (P11274, Breakpoint cluster region protein)
Nature of the assay: Immunoblotting of K-562 leukemia cells, inhibition of BCR-ABL signaling. The assay is classed as cell-based. The conditions noted are these: K-562 cells treated for one hour. Background: Immunoblotting shows a protein as a band on a membrane.

Assay [9] addresses T6, T315I ABL mutant in HCT-116 transfected cells (Homo sapiens, UniProt P00519, T315I).
T6 construct: ABL cDNA (corresponding to residues 27-1130); expressed in transfected cells; host or cells: HCT-116
Nature of the assay: Immunoblotting of transfected HCT-116 cells (pY412-ABL). Type of assay: cell-based. The note with it: 5 μM, HCT-116 transfected with T315I mutant construct, FIG. 3. As to the method: as §2
Oligonucleotide used in the mutagenesis reaction was:
as §3

The target in assay [10] is T1, T315I ABL mutant kinase domain. The assay is described as follows: Indolinone probe titration (fluorescence), probe of 3.1. The assay is classed as binding. The note with it: Table 1; 10 nM enzyme, probe 3 μM to 0. As to the method:
(§4) Data analysis was performed using the Dynafit software.

For assay [11], the target named is T2, wild-type ABL kinase domain. Described as above. Type of assay: binding. The conditions noted are these: Table 1; 10 nM enzyme, probe 3 μM to 0. As to the method: as §4
The target of assay [12] is T3, Wild-type ABL 0P (unphosphorylated) kinase domain. Described as above. The assay is classed as binding. The conditions noted are these: Table 1; 10 nM enzyme, probe 3 μM to 0. The method, then:
as §4

Where [13] appears, read: Tables 2 and 3, probe 3.1, 3 μM highest inhibitor concentration.
Where [14] appears, read: Table 2, probe 3.1, 3 μM highest inhibitor concentration.
[15] abbreviates: Tables 5 and 6, probe 3.2, 3 μM highest inhibitor concentration, average of three experiments.
Where [16] appears, read: Table 5, probe 3.2, 3 μM highest inhibitor concentration, average of three experiments.

Each structure is given as a SMILES string. Where a chain is given by its changes, count along the chain named. “Also recorded” adds a separate entry of the source.

In general, Kd refers to the concentration at which binding is half-saturated. A high value points to weaker binding. Consider `Nc1ncnc2c1ncn2[C@@H]1O[C@H](COP(=O)(O)OP(=O)(O)OP(O)(O)=S)[C@@H](O)[C@H]1O` [ATPγS, reference compound], for which the Kd is 2 ± 0.21 µM in assay [1] (Table 1 validation, probe 3.1 at 0.42 μM, highest conc. ATPγS 250 μM, Imatinib 10 μM, average of three experiments); 9 ± 1.9 µM in assay [2] (Table 1 validation, probe 3.1 at 0.12 μM, highest conc. ATPγS 250 μM, Imatinib 10 μM, average of three experiments); 9.5 ± 3.4 µM in [3] (Table 1 validation, probe 3.1 at 0.15 μM, highest conc. ATPγS 250 μM, Imatinib 10 μM, average of three experiments); 2.61 ± 0.9 µM in assay [4] (Table 4 validation, probe 3.2 at 0.2 μM); 4.8 ± 1 µM in assay [5] (Table 4 validation, probe 3.2 at 3.3 μM); 6.6 ± 1.6 µM in assay [6] (Table 4 validation, probe 3.2 at 2 μM).

As to `CC(C)(NC(=O)c1cc2c(NC(=O)c3ccc(CN4CCCCC4)cc3)n[nH]c2s1)c1ccccc1` [Compound 1, 3-(4-Piperidin-1-ylmethyl-benzoylamino)-1H-thieno[2,3-c]pyrazole-5-carboxylic acid (1-methyl-1-phenyl-ethyl)-amide], the Kd is 0.021 ± 0.006 µM in assay [1] (setting [13]); 0.25 ± 0.075 µM in assay [2] (setting [14]); 0.24 ± 0.03 µM in assay [3] (setting [14]); 0.037 ± 0.013 µM in [4] (setting [15]); 0.31 ± 0.026 µM in assay [5] (setting [16]); 0.278 ± 0.122 µM in assay [6] (setting [16]). Moreover, the “inhibitory activity on ABL (pY412-ABL immunoblot)” value in [7] and in assay [9] was “capable of inhibiting; also recorded: strong inhibitory activity” each time. Also, the “effect on Src” value in [8] was “no effect on Src”. For the same molecule, the “inhibition of ABL auto-phosphorylation of Y412” value in [8] (FIG. 2) is given as “inhibit phosphorylation of Y412”. The “inhibition of phosphorylation of downstream mediators Stat-5 and Crkl” value in [8] (FIG. 2) is on record as “inhibit”.

Take `CCN(CC)CCNC(=O)c1c(C)[nH]c(/C=C2\C(=O)Nc3ccc(S(=O)(=O)Cc4ccccc4)cc32)c1C` [2,4-dimethyl-5-[2-oxo-5-phenylmethanesulfonyl-1,2-dihydro-indol-(3Z)-ylidenemethyl]-1H-pyrrole-3-carboxylic acid (2-diethylamino-ethyl)-amide]: the Kd was determined as 0.14 ± 0.07 µM in assay [10], 0.04 ± 0.02 µM in assay [11] and 0.05 ± 0.03 µM in assay [12].

With `CC(C)(NC(=O)c1cc2c(NC(=O)c3ccc(CN4CCOCC4)cc3)n[nH]c2s1)c1ccccc1F` [Compound 3, 3-(4-Morpholin-4-ylmethyl-benzoylamino)-1H-thieno[2,3-c]pyrazole-5-carboxylic acid [1-(2-fluoro-phenyl)-1-methyl-ethyl]-amide], the Kd in assay [1] (setting [13]) was found to be 0.047 ± 0.015 µM; in [2] (setting [14]) it was 0.37 ± 0.16 µM; in assay [3] (setting [14]), 0.33 ± 0.15 µM; in assay [4] (setting [15]) it was 0.07 ± 0.022 µM; in assay [5] (setting [16]), 0.553 ± 0.136 µM; in assay [6] (setting [16]) it was 0.35 ± 0.05 µM.

For `CC(C)(NC(=O)c1cc2c(NC(=O)c3ccc(CN4CCCCC4)cc3)n[nH]c2s1)c1ccccc1F` [Compound 2, 3-(4-Piperidin-1-ylmethyl-benzoylamino)-1H-thieno[2,3-c]pyrazole-5-carboxylic acid [1-(2-fluoro-phenyl)-1-methyl-ethyl]-amide], the Kd in [1] (setting [13]) was 0.015 ± 0.004 µM; in [2] (setting [14]), 0.177 ± 0.032 µM; in assay [3] (setting [14]), 0.107 ± 0.021 µM; in assay [4] (setting [15]), 0.015 ± 0.004 µM; in assay [5] (setting [16]), 0.177 ± 0.032 µM; in [6] (setting [16]), 0.107 ± 0.021 µM.

With `CN1CCC(Oc2ccc(C(=O)Nc3n[nH]c4sc(C(=O)NC(C)(C)c5ccccc5)cc34)cc2)CC1` [Compound 4, 3-[4-(1-Methyl-piperidin-4-yloxy)-benzoylamino]-1H-thieno[2,3-c]pyrazole-5-carboxylic acid (1-methyl-1-phenyl-ethyl)-amide], the Kd in assay [1] (setting [13]) came out at 0.006 ± 0.003 µM; in [4] (setting [15]) it was 0.0027 ± 0.001 µM.

As to `CN1CCN(c2ccc(C(=O)Nc3n[nH]c4sc(C(=O)NC(C)(C)c5ccccc5)cc34)cc2)CC1` [Compound 5, 3-[4-(4-Methyl-piperazin-1-yl)-benzoylamino]-1H-thieno[2,3-c]pyrazole-5-carboxylic acid (1-methyl-1-phenyl-ethyl)-amide], the Kd in assay [1] (setting [13]) was 0.0041 ± 0.002 µM; in assay [4] (setting [15]) it was 0.0053 ± 0.004 µM.

On to `CC(C)NCc1ccc(C(=O)Nc2n[nH]c3sc(C(=O)NC(C)(C)c4ccccc4F)cc23)cc1` [Compound 7], for which the figures for the Kd in assay [1] (setting [13]) and in [4] (setting [15]) were 0.02 ± 0.002 µM and 0.0168 ± 0.003 µM, respectively.

On to `CC(C)(NC(=O)c1cc2c(NC(=O)c3ccc(N4CCOCC4)cc3)n[nH]c2s1)c1ccccc1` [Compound 12, 3-(4-Morpholin-4-yl-benzoylamino)-1H-thieno[2,3-c]pyrazole-5-carboxylic acid (1-methyl-1-phenyl-ethyl)-amide], for which the Kd in [1] (setting [13]) was determined as 0.016 ± 0.0037 µM; in [4] (setting [15]) it was 0.0117 ± 0.0038 µM.

With `CN1CCN(c2ccc(C(=O)Nc3n[nH]c4sc(C(=O)NC(C)(C)c5ccccc5F)cc34)cc2)CC1` [Compound 8, 3-[4-(4-Methyl-piperazin-1-yl)-benzoylamino)-1H-thieno[2,3-c]pyrazole-5-carboxylic acid [1-(2-fluoro-phenyl)-1-methyl-ethyl]-amide], the Kd in [1] (setting [13]) was 0.012 ± 0.006 µM; in [4] (setting [15]), 0.0083 ± 0.0015 µM.

For the molecule `CC(C)(NC(=O)c1cc2c(NC(=O)c3ccc(CN4CCCCC4)cc3)n[nH]c2s1)c1cccc(F)c1` [Compound 13, 3-(4-Piperidin-1-ylmethyl-benzoylamino)-1H-thieno[2,3-c]pyrazole-5-carboxylic acid [1-(3-fluoro-phenyl)-1-methyl-ethyl]-amide], the Kd in assay [1] (setting [13]) came to 0.01 ± 0.0046 µM; in assay [4] (setting [15]), 0.0063 ± 0.0033 µM.

In the case of `CC(C)(NC(=O)c1cc2c(NC(=O)c3ccc(CN4CCCCC4)cc3)n[nH]c2s1)c1ccccc1Cl` [Compound 9, 3-(4-Piperidin-1-ylmethyl-benzoylamino)-1H-thieno[2,3-c]pyrazole-5-carboxylic acid [1-(2-chloro-phenyl)-1-methyl-ethyl]-amide], the Kd was determined as 0.014 ± 0.0035 µM in assay [1] (setting [13]) and 0.018 ± 0.0034 µM in assay [4] (setting [15]).

With `CC(C)NCc1ccc(C(=O)Nc2n[nH]c3sc(C(=O)NC(C)(C)c4ccccc4)cc23)cc1` [Compound 11, 3-[4-(Isopropylamino-methyl)benzoylamino)-1H-thieno[2,3-c]pyrazole-5-carboxylic acid (1-methyl-1-phenyl-ethyl)-amide], the Kd worked out at 0.012 ± 0.0025 µM in [1] (setting [13]) and 0.011 ± 0.0026 µM in assay [4] (setting [15]).

For `CN1CCN(Cc2ccc(C(=O)Nc3n[nH]c4sc(C(=O)NC(C)(C)c5ccccc5)cc34)cc2)CC1` [Compound 10, 3-[4-(4-Methyl-piperazin-1-ylmethyl)-benzoylamino]-1H-thieno[2,3-c]pyrazole-5-carboxylic acid (1-methyl-1-phenyl-ethyl)-amide], the Kd was 0.0084 ± 0.004 µM in assay [1] (setting [13]) and 0.0093 ± 0.0025 µM in assay [4] (setting [15]).

With `CC(C)(NC(=O)c1cc2c(NC(=O)c3ccc(CN4CCCCC4)cc3)n[nH]c2s1)c1ccc(F)cc1` [Compound 6, 3-(4-Piperidin-1-ylmethyl-benzoylamino)-1H-thieno[2,3-c]pyrazole-5-carboxylic acid [1-(4-fluoro-phenyl)-1-methyl-ethyl]-amide], the Kd in assay [1] (setting [13]) came out at 0.014 ± 0.005 µM; in assay [4] (setting [15]) it was 0.0174 ± 0.006 µM.

Values taken from patent US7803829B2, “Use of a kinase inhibitor for the treatment of particular resistant tumors” (Nerviano Medical Sciences S.r.l., priority 2006, dated 2010).
